Experimental data as given in ChEMBL document CHEMBL4706653, “Ultra-short lipopeptides against gram-positive bacteria while alleviating antimicrobial resistance” (Eur J Med Chem, 2021).
Converted amounts (≈) assume the structure as drawn. The source made the active and inactive calls. No cut-off for these calls is given here. Positions of bridges follow the written chain, without caps; N, C: chain ends. Non-standard residues stand in square brackets, D forms with d. Residues, ends and D or L forms follow the SMILES beside them. *: point of attachment. X1 = CC[C@H](C)CCCCC(=O)*; Dab = NCC[C@H](N)C(=O)O

How the values were obtained:
Cell membrane [1] = experiment: Induction of cytoplasmic membrane disruption in Staphylococcus aureus ATCC 25923 measured for 15 mins by DiSC3-5 dye based fluorescence assay
[2] = Toxicity in BALB/c mouse assessed as congestion in liver at 20 mg/kg, ip administered as single dose measured after 5 days; type: organism-based; conditions: in vivo, 120 h, time 5 day
[3] = Toxicity in BALB/c mouse assessed as liver cell lysis at 80 mg/kg, ip administered as single dose measured after 5 days; type: organism-based; conditions: in vivo, 120 h, time 5 day
Lipopolysaccharide (LPS) = experiment: Binding affinity to LPS (unknown origin) assessed as bacterial killing at 2 times MIC preincubated for 1 hr followed by Staphylococcus aureus ATCC 25923 addition and measured after 2 hrs by colony counting method; conditions: time 3.0 hrs
[4] = Toxicity in BALB/c mouse assessed as ruffled fur at 20 to 80 mg/kg, ip administered as single dose measured within 30 mins; type: organism-based; conditions: in vivo, 0.5 h, dose 20-80 mg/kg
[5] = system: Staphylococcus epidermidis; experiment: Antimicrobial activity against Staphylococcus epidermidis ATCC 12228 after 18 hrs by broth microdilution method; type: functional
Staphylococcus aureus [6] = experiment: Antimicrobial activity against Staphylococcus aureus ATCC 25923 after 18 hrs by broth microdilution method; type: functional
[7] = Toxicity in BALB/c mouse assessed as eosinophilic mass in the renal tubular lumen at 80 mg/kg, ip administered as single dose measured after 5 days; type: organism-based; conditions: in vivo, 120 h, time 5 day
[8] = Toxicity in BALB/c mouse assessed as vacuoles in liver cytoplasm at 20 mg/kg, ip administered as single dose measured after 5 days; type: organism-based; conditions: in vivo, 120 h, time 5 day
[9] = system: Staphylococcus epidermidis; experiment: Antimicrobial activity against Staphylococcus epidermidis ATCC 12228 at 0.5 times MIC after 15 passages by broth microdilution method; type: functional, organism-based
[10] = Binding affinity to LTA (unknown origin) assessed as bacterial killing at 2 times MIC preincubated for 1 hr followed by Staphylococcus aureus ATCC 25923 addition and measured after 2 hrs by colony counting method; conditions: time 3.0 hrs
Staphylococcus aureus [11] = experiment: Induction of nucleic acid leakage in Staphylococcus aureus ATCC 25923 at 4 times MIC; type: functional
[12] = Toxicity in BALB/c mouse assessed as inflammatory cell infiltration in kidney at 80 mg/kg, ip administered as single dose measured after 5 days; type: organism-based; conditions: in vivo, 120 h, time 5 day
Staphylococcus aureus [13] = experiment: Antimicrobial activity against methicillin-resistant Staphylococcus aureus 75 after 18 hrs by broth microdilution method; type: functional
Staphylococcus aureus [14] = experiment: Induction of reactive oxygen species generation in Staphylococcus aureus ATCC 25923 by […] dye based fluorescence assay; type: functional, organism-based
Staphylococcus aureus [15] = experiment: Antibiofilm activity against ciprofloxacin-resistant Staphylococcus aureus ATCC 25923 at 0.5 to 8 uM after 24 hrs by crystal violet staining based assay; type: functional, organism-based; conditions: dose 0.5-8 µM
Staphylococcus aureus [16] = experiment: Antibiofilm activity against Staphylococcus aureus ATCC 25923 at 0.5 to 8 uM after 24 hrs by crystal violet staining based assay; type: functional, organism-based; conditions: dose 0.5-8 µM
[17] = Toxicity in BALB/c mouse assessed as inflammatory cell infiltration in liver at 20 mg/kg, ip administered as single dose measured after 5 days; type: organism-based; conditions: in vivo, 120 h, time 5 day
Staphylococcus aureus [18] = experiment: Antimicrobial activity against Staphylococcus aureus ATCC 25923 assessed as bacterial killing preincubated for 4 hrs followed by replating on MHB agar and measured after 24 hrs by time kill assay; type: functional, organism-based; conditions: time 28.0 hrs
Cell membrane [19] = experiment: Induction of membrane disruption in Staphylococcus aureus ATCC 25923 assessed as PI-positive cells at 4 times MIC measured after 2 hrs by propidium iodide staining based flow cytometry relative to control
Staphylococcus aureus [20] = experiment: Antimicrobial activity against Staphylococcus aureus ATCC 25923 at 0.5 times MIC after 15 passages by broth microdilution method; type: functional, organism-based
[21] = Toxicity in BALB/c mouse assessed as immobility at 20 to 80 mg/kg, ip administered as single dose measured within 30 mins; type: organism-based; conditions: in vivo, 0.5 h, dose 20-80 mg/kg
Staphylococcus aureus [22] = experiment: Antimicrobial activity against methicillin-resistant Staphylococcus aureus 113 after 18 hrs by broth microdilution method; type: functional
[23] = Toxicity in BALB/c mouse assessed as death at 20 mg/kg, ip administered as single dose measured within 24 hrs; type: organism-based; conditions: in vivo
Cell membrane [24] = experiment: Induction of membrane disruption in Staphylococcus aureus ATCC 25923 assessed as PI-positive cells at 2 times MIC measured after 2 hrs by propidium iodide staining based flow cytometry relative to control
[25] = Toxicity in BALB/c mouse assessed as congestion in kidney at 40 mg/kg, ip administered as single dose measured after 5 days; type: organism-based; conditions: in vivo, 120 h, time 5 day
Staphylococcus aureus [26] = experiment: Antimicrobial activity against Staphylococcus aureus ATCC 29213 after 18 hrs by broth microdilution method; type: functional
[27] = Toxicity in BALB/c mouse assessed as swelling of renal tubular epithelial cells at 80 mg/kg, ip administered as single dose measured after 5 days; type: organism-based; conditions: in vivo, 120 h, time 5 day
Cell membrane [28] = experiment: Induction of membrane disruption in Staphylococcus aureus ATCC 25923 measured after 2 hrs by propidium iodide staining based confocal laser scanning microscopic analysis; type: subcellular
[29] = Toxicity in BALB/c mouse assessed as death at 20 to 80 mg/kg, ip administered as single dose measured within 30 mins; type: organism-based; conditions: in vivo, 0.5 h, dose 20-80 mg/kg
Bacillus subtilis = experiment: Antimicrobial activity against Bacillus subtilis ATCC 23857 after 18 hrs by broth microdilution method; type: functional
Staphylococcus aureus [30] = experiment: Antimicrobial activity against Staphylococcus aureus ATCC 25923 assessed as bacterial killing at 2 times MIC preincubated for 2 hrs followed by replating on MHB agar and measured after 24 hrs by time kill assay; type: functional, organism-based; conditions: time 26.0 hrs
Staphylococcus aureus [31] = experiment: Antimicrobial activity against Staphylococcus aureus ATCC 25923 assessed as bacterial killing at 4 times MIC preincubated for 30 mins followed by replating on MHB agar and measured after 24 hrs by time kill assay; type: functional, organism-based; conditions: time 24.5 hrs
Staphylococcus aureus [32] = experiment: Ratio of MIC for antimicrobial activity against Staphylococcus aureus ATCC 25923 in presence of 2.5% serum to MIC for antimicrobial activity against Staphylococcus aureus ATCC 25923 in absence of serum; type: functional
Staphylococcus aureus [33] = experiment: Ratio of MIC for antimicrobial activity against Staphylococcus aureus ATCC 25923 in presence of 10% serum to MIC for antimicrobial activity against Staphylococcus aureus ATCC 25923 in absence of serum; type: functional
Erythrocyte = experiment: Hemolytic activity against mouse erythrocytes measured after 1 hr; type: ADME, cell-based
[34] = Therapeutic index, ratio of MHC for mouse RBC to geometric mean of peptide MIC for Staphylococcus epidermidis ATCC 12228; type: toxicity; conditions: pooled result: one value given for 6 cell lines, strains, targets or settings, read-out: TI
HEK-293T = experiment: Cytotoxicity against HEK293T cells assessed as reduction in cell viability at 1 uM measured after 24 hrs by MTT assay; type: cell-based; conditions: human
Staphylococcus aureus [35] = experiment: Antimicrobial activity against Staphylococcus aureus ATCC 25923 assessed as bacterial killing at 0.5 times MIC preincubated for 4 hrs followed by replating on MHB agar and measured after 24 hrs by time kill assay; type: functional, organism-based; conditions: time 28.0 hrs
Staphylococcus aureus [36] = experiment: Antimicrobial activity against Staphylococcus aureus ATCC 25923 assessed as bacterial killing at MIC preincubated for 4 hrs followed by replating on MHB agar and measured after 24 hrs by time kill assay; type: functional, organism-based; conditions: time 28.0 hrs
Staphylococcus aureus [37] = experiment: Ratio of MIC for antimicrobial activity against Staphylococcus aureus ATCC 25923 in presence of 5% serum to MIC for antimicrobial activity against Staphylococcus aureus ATCC 25923 in absence of serum; type: functional

## CC[C@H](C)CCCCC(=O)N[C@@H](CCN)C(=O)N[C@H](C(=O)N[C@@H](CCN)C(=O)N[C@H]1CCNC(=O)[C@H]([C@@H](C)O)NC(=O)[C@H](CCN)NC(=O)[C@H](CCN)NC(=O)[C@H](CC(C)C)NC(=O)[C@@H](Cc2ccccc2)NC(=O)[C@H](CCN)NC1=O)[C@@H](C)O (X1-[Dab]T[Dab][Dab][Dab][dF]L[Dab][Dab]T; lactam 4-C)
Cell membrane [1]
  Activity: inactive
[2]
  Activity: Toxic
[3]
  Activity: Toxic
Lipopolysaccharide (LPS)
  Activity: Active
[4]
  Activity: Toxic
[5]
  MIC: 8 µM (≈ 9.63 µg/mL)
Staphylococcus aureus [6]
  MIC: 16 µM (≈ 19.3 µg/mL)
[7]
  Activity: Toxic
[8]
  Activity: Toxic
[9]
  Activity: Active
[10]
  Activity: Active
Staphylococcus aureus [11]
  Activity: inactive
[12]
  Activity: Toxic
Staphylococcus aureus [13]
  MIC: 8 µM (≈ 9.63 µg/mL)
Staphylococcus aureus [14]
  Activity: Active
Staphylococcus aureus [15]
  Activity: Active
Staphylococcus aureus [16]
  Activity: Active
[17]
  Activity: Toxic
Staphylococcus aureus [18]
  Activity: inactive
Cell membrane [19]
  Activity: 84.8%
Staphylococcus aureus [20]
  Activity: Active
[21]
  Activity: Toxic
Staphylococcus aureus [22]
  MIC: 8 µM (≈ 9.63 µg/mL)
[23]
  Activity: Toxic
Cell membrane [24]
  Activity: 68%
[25]
  Activity: Toxic
Staphylococcus aureus [26]
  MIC: 16 µM (≈ 19.3 µg/mL)
[27]
  Activity: Toxic
Cell membrane [28]
  Activity: inactive
[29]
  Activity: Toxic
Bacillus subtilis
  MIC: 8 µM (≈ 9.63 µg/mL)

## CC[C@H](C)[C@H](NC(=O)CN)C(=O)NCC(=O)N[C@@H](C)C(=O)N[C@H](C(=O)N[C@@H](CC(C)C)C(=O)N[C@@H](CCCCN)C(=O)N[C@H](C(=O)N[C@@H](CC(C)C)C(=O)N[C@H](C(=O)N[C@H](C(=O)NCC(=O)N[C@@H](CC(C)C)C(=O)N1CCC[C@H]1C(=O)N[C@@H](C)C(=O)N[C@@H](CC(C)C)C(=O)N[C@H](C(=O)N[C@@H](CO)C(=O)N[C@@H](Cc1c[nH]c2ccccc12)C(=O)N[C@H](C(=O)N[C@@H](CCCCN)C(=O)N[C@@H](CCCNC(=N)N)C(=O)N[C@@H](CCCCN)C(=O)N[C@@H](CCCNC(=N)N)C(=O)N[C@@H](CCC(N)=O)C(=O)N[C@@H](CCC(N)=O)C(N)=O)[C@@H](C)CC)[C@@H](C)CC)[C@@H](C)O)[C@@H](C)O)C(C)C)C(C)C [MELITTIN]
Cell membrane [1]
  Activity: Active
Staphylococcus aureus [30]
  Activity: Active
Staphylococcus aureus [31]
  Activity: Active
Staphylococcus aureus [32]
  Ratio: 2
Lipopolysaccharide (LPS)
  Activity: Active
[9]
  Activity: Active
[10]
  Activity: Active
Staphylococcus aureus [33]
  Ratio: 2
Staphylococcus aureus [11]
  Activity: inactive
Staphylococcus aureus [14]
  Activity: Active
Erythrocyte
  MHC10: 2 µM
Staphylococcus aureus [15]
  Activity: Active
Staphylococcus aureus [16]
  Activity: Active
[34]
  selectivity ratio: 0.8
HEK-293T
  Activity: Toxic
Staphylococcus aureus [35]
  Activity: inactive
Staphylococcus aureus [36]
  Activity: Active
Cell membrane [19]
  Activity: 92.5%
Staphylococcus aureus [20]
  Activity: Active
Cell membrane [24]
  Activity: 91.9%
Cell membrane [28]
  Activity: Active
Staphylococcus aureus [37]
  Ratio: 2
